Reference: patent US20240109865A1, “INDAZOLE COMPOUNDS AS KINASE INHIBITORS” (TYRA BIOSCIENCES, INC., priority 2020, published 2024)

Key:
[1] = target: FGFR3-BAIAP2L1 Ba/F3 cells (Homo sapiens, UniProt P22607); assay: Ba/F3 cell viability assay (CellTiter-Glo 2.0), FGFR3-BAIAP2L1 Ba/F3; type: cell-based; conditions: for Ba/F3 FGFR1/FGFR3 Selectivity: FGFR3 > FGFR1 selectivity ratio in Ba/F3 FGFR fusion cell based assays; for IC50: read-out: Ba/F3 Cells FGFR3 (IC50 nM), FGFR3-BAIAP2L1 Ba/F3 cells, 48 hours, Cell Titer Glo 2.0
Summary of the method: (§1)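 Viability read as ATP luminescence (CellTiter-Glo 2.0) after 48 h compound exposure, normalized to DMSO-treated cells and fitted with a 4-parameter curve for IC50. Cells: Ba/F3 dependent on FGFR1-BCR or FGFR3-BAIAP2L1 fusion kinase; top dose 30 μM, 10-fold steps, 9 doses in triplicate.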

[2] = target: FGFR1-BCR Ba/F3 cells (Homo sapiens, UniProt P11362); assay: Ba/F3 cell viability assay (CellTiter-Glo 2.0), FGFR1-BCR Ba/F3; type: cell-based; conditions: read-out: Ba/F3 Cells FGFR1 (IC50 nM), 48 hours, Cell Titer Glo 2.0
Summary of the method: as §1

[3] = target: FGFR1 (Homo sapiens (Human), UniProt P11362); assay: Kinase assay, binding constants (Kd), kinase-tagged T7 phage, qPCR
Summary of the method: (§2)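 Kinase-tagged T7 phage (grown in BL21-derived E. coli) competed with test compound for immobilized biotinylated ligand on streptavidin beads. Kds came from an 11-point 3-fold dilution series at 0.9% final DMSO. Bound kinase was eluted with non-biotinylated ligand and quantified by qPCR, with Hill slope fixed at −1.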

[4] = target: FGFR2 (Homo sapiens (Human), UniProt P21802); assay: as above
Summary of the method: as §2

[5] = target: FGFR3 (Homo sapiens (Human), UniProt P22607); assay: as above
Summary of the method: as §2

[6] = target: FGFR3 (V555M) (Homo sapiens (Human), UniProt P22607, V555M); assay: as above; conditions: V555M mutant
Summary of the method: as §2

[7] = target: FGFR4 (Homo sapiens (Human), UniProt P22455); assay: as above
Summary of the method: as §2

Sequence of FGFR3 (P22607 23-806): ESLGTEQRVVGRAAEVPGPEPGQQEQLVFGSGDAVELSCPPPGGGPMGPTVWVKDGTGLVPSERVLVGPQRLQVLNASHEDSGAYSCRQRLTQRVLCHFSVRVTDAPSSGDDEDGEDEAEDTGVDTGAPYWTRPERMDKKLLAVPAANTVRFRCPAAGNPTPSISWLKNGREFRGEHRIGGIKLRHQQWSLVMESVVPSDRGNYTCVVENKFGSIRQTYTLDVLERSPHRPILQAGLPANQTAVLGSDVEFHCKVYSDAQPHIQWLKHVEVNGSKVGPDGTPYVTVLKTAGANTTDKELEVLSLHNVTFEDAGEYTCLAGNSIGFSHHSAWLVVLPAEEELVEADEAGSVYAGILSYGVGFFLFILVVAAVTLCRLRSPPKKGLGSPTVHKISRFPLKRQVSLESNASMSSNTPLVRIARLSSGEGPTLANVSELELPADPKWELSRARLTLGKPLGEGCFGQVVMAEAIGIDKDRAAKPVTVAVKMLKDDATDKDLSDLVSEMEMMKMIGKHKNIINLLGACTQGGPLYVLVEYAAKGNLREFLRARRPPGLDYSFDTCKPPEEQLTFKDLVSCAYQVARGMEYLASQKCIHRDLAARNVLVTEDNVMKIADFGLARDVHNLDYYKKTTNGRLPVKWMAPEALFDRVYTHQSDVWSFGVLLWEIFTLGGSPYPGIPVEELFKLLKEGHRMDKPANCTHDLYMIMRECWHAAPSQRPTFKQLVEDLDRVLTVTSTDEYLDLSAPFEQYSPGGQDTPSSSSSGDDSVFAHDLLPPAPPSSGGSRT
Sequence of FGFR3-BAIAP2L1 Ba/F3 cells (P22607 23-806 limits assumed, change not shown): as the sequence (P22607 23-806) above
Sequence of FGFR4 (P22455 22-802): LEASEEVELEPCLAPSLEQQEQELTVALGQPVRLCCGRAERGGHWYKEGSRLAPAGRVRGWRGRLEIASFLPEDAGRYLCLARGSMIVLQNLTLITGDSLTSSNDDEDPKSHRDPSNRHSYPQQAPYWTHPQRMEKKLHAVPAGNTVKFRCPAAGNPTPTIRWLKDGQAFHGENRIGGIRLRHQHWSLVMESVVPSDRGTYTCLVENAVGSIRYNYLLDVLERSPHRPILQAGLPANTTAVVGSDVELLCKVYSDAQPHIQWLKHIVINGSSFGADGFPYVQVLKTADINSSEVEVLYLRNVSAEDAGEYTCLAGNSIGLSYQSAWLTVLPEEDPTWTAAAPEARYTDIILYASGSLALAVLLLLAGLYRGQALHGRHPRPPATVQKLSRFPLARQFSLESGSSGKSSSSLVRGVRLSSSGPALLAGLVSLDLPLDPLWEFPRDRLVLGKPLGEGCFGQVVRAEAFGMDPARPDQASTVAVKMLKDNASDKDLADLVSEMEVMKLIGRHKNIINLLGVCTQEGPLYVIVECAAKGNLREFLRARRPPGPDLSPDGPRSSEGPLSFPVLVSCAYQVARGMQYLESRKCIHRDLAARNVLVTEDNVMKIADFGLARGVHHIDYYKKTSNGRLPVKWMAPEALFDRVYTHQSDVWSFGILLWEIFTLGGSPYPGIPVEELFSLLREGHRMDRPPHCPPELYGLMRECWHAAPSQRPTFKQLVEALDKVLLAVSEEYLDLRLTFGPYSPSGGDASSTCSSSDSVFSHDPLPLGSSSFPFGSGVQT
Sequence of FGFR1-BCR Ba/F3 cells (P11362 22-822 limits assumed, change not shown): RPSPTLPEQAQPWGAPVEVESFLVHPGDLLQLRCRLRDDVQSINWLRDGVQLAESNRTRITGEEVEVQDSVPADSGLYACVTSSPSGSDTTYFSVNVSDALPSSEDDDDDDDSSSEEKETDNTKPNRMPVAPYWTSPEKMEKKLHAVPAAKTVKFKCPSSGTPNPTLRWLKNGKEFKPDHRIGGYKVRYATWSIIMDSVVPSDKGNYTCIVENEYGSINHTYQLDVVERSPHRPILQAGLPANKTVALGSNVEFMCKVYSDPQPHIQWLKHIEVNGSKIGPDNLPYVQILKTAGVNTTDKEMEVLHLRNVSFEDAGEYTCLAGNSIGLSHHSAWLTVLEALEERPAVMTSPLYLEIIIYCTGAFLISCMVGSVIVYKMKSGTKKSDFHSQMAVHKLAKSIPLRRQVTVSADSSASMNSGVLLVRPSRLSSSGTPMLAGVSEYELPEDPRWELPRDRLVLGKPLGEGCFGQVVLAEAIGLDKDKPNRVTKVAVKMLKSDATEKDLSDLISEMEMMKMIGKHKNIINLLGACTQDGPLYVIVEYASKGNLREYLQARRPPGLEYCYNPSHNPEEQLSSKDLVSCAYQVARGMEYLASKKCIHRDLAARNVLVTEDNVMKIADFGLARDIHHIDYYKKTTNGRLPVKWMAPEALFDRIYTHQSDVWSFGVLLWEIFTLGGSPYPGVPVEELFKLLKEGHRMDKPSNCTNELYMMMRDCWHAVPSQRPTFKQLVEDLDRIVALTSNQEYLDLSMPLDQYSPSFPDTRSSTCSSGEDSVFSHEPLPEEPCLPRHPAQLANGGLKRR
Sequence of FGFR1 (P11362 22-822): as the sequence (P11362 22-822 limits assumed, change not shown) above
Sequence of FGFR2 (P21802 22-821): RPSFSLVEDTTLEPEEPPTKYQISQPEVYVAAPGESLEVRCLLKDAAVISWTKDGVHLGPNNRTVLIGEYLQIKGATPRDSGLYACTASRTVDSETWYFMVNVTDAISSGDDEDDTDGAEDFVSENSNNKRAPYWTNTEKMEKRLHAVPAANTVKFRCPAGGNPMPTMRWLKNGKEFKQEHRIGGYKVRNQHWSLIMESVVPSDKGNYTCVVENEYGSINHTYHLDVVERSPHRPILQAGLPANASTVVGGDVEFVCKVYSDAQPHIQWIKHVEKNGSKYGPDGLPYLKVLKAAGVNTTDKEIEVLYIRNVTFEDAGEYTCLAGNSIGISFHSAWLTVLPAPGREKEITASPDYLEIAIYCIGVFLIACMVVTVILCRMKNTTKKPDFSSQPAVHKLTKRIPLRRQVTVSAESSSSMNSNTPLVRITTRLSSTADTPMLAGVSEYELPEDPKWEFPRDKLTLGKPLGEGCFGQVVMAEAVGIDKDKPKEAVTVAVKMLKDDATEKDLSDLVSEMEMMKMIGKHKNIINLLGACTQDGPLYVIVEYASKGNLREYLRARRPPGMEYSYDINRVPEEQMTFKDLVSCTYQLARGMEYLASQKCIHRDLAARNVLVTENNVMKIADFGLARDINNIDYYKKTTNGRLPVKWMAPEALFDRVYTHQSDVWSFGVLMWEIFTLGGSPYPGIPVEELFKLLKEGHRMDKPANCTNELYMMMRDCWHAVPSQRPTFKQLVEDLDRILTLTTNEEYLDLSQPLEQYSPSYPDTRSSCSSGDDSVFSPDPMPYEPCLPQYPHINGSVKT
Sequence of FGFR3 (V555M) (P22607 23-806 V555M): as the sequence (P22607 23-806) above, with V533M counted along it

Question: How did the “Ba/F3 FGFR1/FGFR3 Selectivity” value [1] turn out when C[C@@H](Oc1ccc2[nH]nc(-c3ccc(N4CCNCC4=O)nc3)c2c1)c1c(Cl)cncc1Cl [Example 37, 1-[5-[5-[(1R)-1-(3,5-dichloro-4-pyridyl)ethoxy]-1H-indazol-3-yl]-2-pyridyl]piperazin-2-one] was run?
Answer: 12

Question: What about the IC50 [1] of the same compound?
Answer: 1 to 20 nM

Question: What about the IC50 [2] of the same compound?
Answer: 100 to 300 nM

Question: What about the Kd [3] of the same compound?
Answer: 20 to 100 nM

Question: What about the Kd [4] of the same compound?
Answer: 20 to 100 nM

Question: And the Kd [5]?
Answer: 1 to 20 nM

Question: And the Kd [6]?
Answer: 1 to 20 nM

Question: And the Kd [7]?
Answer: 1 to 20 nM

Question: For C[C@@H](Oc1ccc2[nH]nc(-c3ccc(N4CC5(CCN(C)CC5)OC4=O)nc3)c2c1)c1c(Cl)cncc1Cl [Example 75, 3-[5-[5-[(1R)-1-(3,5-dichloro-4-pyridyl)ethoxy]-1H-indazol-3-yl]-2-pyridyl]-8-methyl-1-oxa-3,8-diazaspiro[4.5]decan-2-one], which “Ba/F3 FGFR1/FGFR3 Selectivity” value [1] is on record?
Answer: 14

Question: What about the IC50 [1] of the same compound?
Answer: 1 to 20 nM

Question: What about the IC50 [2] of the same compound?
Answer: 100 to 300 nM

Question: And the Kd [3]?
Answer: 1 to 20 nM

Question: What about the Kd [4] of the same compound?
Answer: 1 to 20 nM

Question: What about the Kd [5] of the same compound?
Answer: 1 to 20 nM

Question: What about the Kd [6] of the same compound?
Answer: 1 to 20 nM

Question: What about the Kd [7] of the same compound?
Answer: 1 to 20 nM

Question: Which results are given for Cc1ncc(Cl)c([C@@H](C)Oc2ccc3[nH]nc(-c4cnn(C5CCS(=O)(=O)CC5)c4)c3c2)c1Cl [Example 116, 4-[4-[5-[(1R)-1-(3,5-dichloro-2-methyl-4-pyridyl)ethoxy]-1H-indazol-3-yl]pyrazol-1-yl]thiane 1,1-dioxide]?
Answer: Ba/F3 FGFR1/FGFR3 Selectivity [1]: 12; IC50 [1]: 1 to 20 nM; IC50 [2]: 100 to 300 nM; Kd [3]: 20 to 100 nM; Kd [4]: 20 to 100 nM; Kd [5]: 1 to 20 nM; Kd [6]: 1 to 20 nM; Kd [7]: 20 to 100 nM

Question: Which results are given for CCS(=O)(=O)N1CC2(CN(c3ncc(-c4n[nH]c5ccc(O[C@H](C)c6c(Cl)cncc6Cl)cc45)cn3)C2)C1 [Example 128, 5-[(1R)-1-(3,5-dichloro-4-pyridyl)ethoxy]-3-[2-(2-ethylsulfonyl-2,6-diazaspiro[3.3]heptan-6-yl)pyrimidin-5-yl]-1H-indazole]?
Answer: Ba/F3 FGFR1/FGFR3 Selectivity [1]: 8; IC50 [1]: 20 to 100 nM; IC50 [2]: > 300 nM; Kd [3]: 20 to 100 nM; Kd [4]: 20 to 100 nM; Kd [5]: 1 to 20 nM; Kd [6]: 1 to 20 nM; Kd [7]: 1 to 20 nM

Question: Which “Ba/F3 FGFR1/FGFR3 Selectivity” value [1] does the source give for C[C@@H](Oc1ccc2[nH]nc(-c3cnn(C4CCS(=O)(=O)CC4)c3)c2c1)c1c(Cl)cncc1Cl [Example 114, 4-[4-[5-[(1R)-1-(3,5-dichloro-4-pyridyl)ethoxy]-1H-indazol-3-yl]pyrazol-1-yl]thiane 1,1-dioxide] here?
Answer: 12

Question: And the IC50 [1]?
Answer: 20 to 100 nM

Question: What about the IC50 [2] of the same compound?
Answer: 100 to 300 nM

Question: What about the Kd [3] of the same compound?
Answer: 1 to 20 nM

Question: What about the Kd [4] of the same compound?
Answer: 1 to 20 nM

Question: What about the Kd [5] of the same compound?
Answer: 1 to 20 nM

Question: What about the Kd [6] of the same compound?
Answer: 1 to 20 nM

Question: And the Kd [7]?
Answer: 20 to 100 nM

Question: What does the source list for C[C@@H](Oc1ccc2[nH]nc(-c3cnn(C4CCN(C5COC5)CC4)c3)c2c1)c1cc(F)cc(F)c1 [Example 168, 5-[(1R)-1-(3,5-difluorophenyl)ethoxy]-3-[1-[1-(oxetan-3-yl)-4-piperidyl]pyrazol-4-yl]-1H-indazole]?
Answer: Ba/F3 FGFR1/FGFR3 Selectivity [1]: 8; IC50 [1]: 20 to 100 nM; IC50 [2]: > 300 nM; Kd [3]: 100 to 300 nM; Kd [4]: 20 to 100 nM; Kd [5]: 1 to 20 nM; Kd [6]: 1 to 20 nM; Kd [7]: > 300 nM

Question: How did the “Ba/F3 FGFR1/FGFR3 Selectivity” value [1] turn out when C[C@@H](Oc1ccc2[nH]nc(-c3ccc(C4CCN(S(C)(=O)=O)CC4)nc3)c2c1)c1c(Cl)cncc1Cl [Example 70, 5-[(1R)-1-(3,5-dichloro-4-pyridyl)ethoxy]-3-[6-(1-methylsulfonyl-4-piperidyl)-3-pyridyl]-1H-indazole] was run?
Answer: 20

Question: And the IC50 [1]?
Answer: 1 to 20 nM

Question: What about the IC50 [2] of the same compound?
Answer: 20 to 100 nM

Question: And the Kd [3]?
Answer: 1 to 20 nM

Question: And the Kd [4]?
Answer: 1 to 20 nM

Question: And the Kd [5]?
Answer: 1 to 20 nM

Question: What about the Kd [6] of the same compound?
Answer: 1 to 20 nM

Question: What about the Kd [7] of the same compound?
Answer: 1 to 20 nM

Question: C[C@@H](Oc1ccc2[nH]nc(-c3ccc(N4CC5(CCN5S(C)(=O)=O)C4)nc3)c2c1)c1c(Cl)cncc1Cl [Example 100, 5-[(1R)-1-(3,5-dichloro-4-pyridyl)ethoxy]-3-[6-(1-methylsulfonyl-1,6-diazaspiro[3.3]heptan-6-yl)-3-pyridyl]-1H-indazole] was tested. Which “Ba/F3 FGFR1/FGFR3 Selectivity” value [1] did it give?
Answer: 22

Question: And the IC50 [1]?
Answer: 1 to 20 nM

Question: And the IC50 [2]?
Answer: > 300 nM

Question: What about the Kd [3] of the same compound?
Answer: 1 to 20 nM

Question: And the Kd [4]?
Answer: 1 to 20 nM

Question: What about the Kd [5] of the same compound?
Answer: 1 to 20 nM

Question: And the Kd [6]?
Answer: 1 to 20 nM

Question: And the Kd [7]?
Answer: 1 to 20 nM
